Where a name gives a salt, the structure may show the parent alone. Read-outs that look alike come from different tables or passages of the source.
Assays:
hPAD4 = hPAD4 (Homo sapiens, UniProt Q9UM07); experiment: PAD4 inhibition assay, RapidFire mass spectrometry (hPAD4 RFMS); assay type: biochemical
Description: Compounds of the present invention were assayed as inhibitors of PAD4 using the assay protocol described below.
Compounds were solubilised in 100% DMSO to achieve 100 mM final compound concentration. Compound stock solutions were stored at RT. A series of dilutions were prepared in DMSO and mixed 8 times with 20 μL, mixing volume. Final assay conditions were as follows:
Assay buffer (as aforementioned): 100 mM Tris-HCl (pH 7.6), 2 mM DTT, 1 mM CaCl2
Final concentrations: • 100 nM hPAD4 enzyme • 50 μM (8-fold sub-Km) substrate peptide • 0.5% DMSO
Total incubation time: 65 mins at 37° C.
Stop solution: 40 μl 5% TCA in ACN
0.25 μL of compound solution was added to 10 μL of 200 nM PAD4 in assay buffer (100 mM Tris-HCl pH 7.6, 2 mM DTT). After 5 mins, 10 μL of 100 μM of substrate in buffer (100 mM Tris-HCl pH 7.6, 2 mM DTT, 2 mM CaCl2) was added and the reaction incubated for 60 mins at 37 ° C. The enzymatic reaction was quenched by addition of 40 μl of 5% TCA in ACN (1.7% TCA final concentration) stop solution. Arginine containing substrate and citrulline containing product (+1 Da mass shift) were subjected to solid phase extraction on Agilent RapidFire (RF) 300 system and detected on a coupled, triple quadrupole Agilent 6460 QQQ mass spectrometry (MS) device under application of multiple reaction monitoring (MRM) for quantitation.

mPAD4 = mPAD4 (Mus musculus, UniProt Q9Z183); experiment: PAD4 inhibition assay, RapidFire mass spectrometry (mPAD4 RFMS); assay type: biochemical
Chain of mPAD4 (Q9Z183 whole entry): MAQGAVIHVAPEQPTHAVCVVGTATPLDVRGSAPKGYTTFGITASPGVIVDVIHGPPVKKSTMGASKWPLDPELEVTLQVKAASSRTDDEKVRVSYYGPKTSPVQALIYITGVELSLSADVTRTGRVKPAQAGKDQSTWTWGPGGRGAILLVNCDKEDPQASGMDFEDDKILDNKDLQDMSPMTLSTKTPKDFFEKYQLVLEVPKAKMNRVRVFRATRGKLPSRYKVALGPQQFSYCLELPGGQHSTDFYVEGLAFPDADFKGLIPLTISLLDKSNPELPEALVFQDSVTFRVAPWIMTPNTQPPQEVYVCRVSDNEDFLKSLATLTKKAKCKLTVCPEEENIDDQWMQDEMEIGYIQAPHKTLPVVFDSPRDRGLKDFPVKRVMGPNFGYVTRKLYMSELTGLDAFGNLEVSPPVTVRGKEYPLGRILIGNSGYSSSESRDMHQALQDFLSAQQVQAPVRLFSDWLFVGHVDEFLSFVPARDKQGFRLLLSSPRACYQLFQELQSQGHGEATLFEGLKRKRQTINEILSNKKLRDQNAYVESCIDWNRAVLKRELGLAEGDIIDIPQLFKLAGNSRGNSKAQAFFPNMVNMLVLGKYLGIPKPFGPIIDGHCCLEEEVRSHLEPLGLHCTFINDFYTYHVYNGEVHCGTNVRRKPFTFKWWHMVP

[1] = 100 nM hPAD4 enzyme, 50 μM substrate peptide, 65 mins at 37° C., read-out: hPAD4 RFMS IC50
[2] = pIC50=-log(IC50), read-out: hPAD4 RFMS pIC50 (converted)
[3] = pIC50=-log(IC50), read-out: mPAD4 RFMS pIC50 (converted)

Chain of hPAD4 (Q9UM07 whole entry): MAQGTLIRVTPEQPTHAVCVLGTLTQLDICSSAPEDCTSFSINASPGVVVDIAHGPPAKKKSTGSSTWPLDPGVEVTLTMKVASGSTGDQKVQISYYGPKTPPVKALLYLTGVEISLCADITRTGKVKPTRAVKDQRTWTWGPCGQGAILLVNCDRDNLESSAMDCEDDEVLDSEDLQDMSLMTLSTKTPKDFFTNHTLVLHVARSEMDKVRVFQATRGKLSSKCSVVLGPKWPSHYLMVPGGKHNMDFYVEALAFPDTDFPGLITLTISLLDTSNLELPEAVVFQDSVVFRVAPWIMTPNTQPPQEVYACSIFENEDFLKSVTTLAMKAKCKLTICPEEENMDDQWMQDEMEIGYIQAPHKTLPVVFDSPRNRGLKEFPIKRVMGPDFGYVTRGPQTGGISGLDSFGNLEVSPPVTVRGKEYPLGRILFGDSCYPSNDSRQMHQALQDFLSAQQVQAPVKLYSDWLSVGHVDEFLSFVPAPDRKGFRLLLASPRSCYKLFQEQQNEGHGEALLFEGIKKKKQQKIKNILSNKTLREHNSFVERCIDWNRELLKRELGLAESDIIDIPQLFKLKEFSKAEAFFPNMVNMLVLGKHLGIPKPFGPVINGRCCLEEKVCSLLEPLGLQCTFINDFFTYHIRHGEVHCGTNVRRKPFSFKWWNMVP

| IC50 (hPAD4; [1]) [nM] | IC50 (hPAD4; [2]) [nM] | IC50 (mPAD4; [3]) [nM] | IC50 (mPAD4; read-out: mPAD4 RFMS IC50) [nM] | hPAD4 RFMS pIC50 (hPAD4; pIC50=-log(IC50)) | Compound |
| --- | --- | --- | --- | --- | --- |
| 5000 to 10000 | 1000 to 10000 | – | – | – | Cn1c(-c2cc3cccnc3n2CC2CC2)nc2cc(C(=O)N3CCC4CCNC4C3)cnc21 (centres unmarked) [Compound I-8, 2-[1-(cyclopropylmethyl)-1H-pyrrolo[2,3-b]pyridin-2-yl]-3-methyl-6-{octahydro-1H-pyrrolo[2,3-c]pyridine-6-carbonyl}-3H-imidazo[4,5-b]pyridine hydrochloride] |
| 1000 to 5000 | 1000 to 10000 | ≤ 1000 | ≤ 1000 | – | Cn1c(-c2cc3cccnc3n2CC2CC2)nc2cc(C(=O)N3CCC[C@@H](N)C3)cnc21 [Compound I-7] |
| ≥ 10000 | – | – | – | – | Cn1c(-c2cc3cccnc3n2CC(F)(F)F)nc2cc(C(=O)N3CCC4CCNC4C3)cnc21 (centres unmarked) [Compound I-19] |
| ≥ 10000 | 10000 to 100000 | – | – | – | Cn1c(-c2cc3cccnc3n2CC(F)(F)F)nc2cc(C(=O)N3CC[C@@H]4CCN[C@@H]4C3)cnc21 [Compound I-1] |
| 1000 to 5000 | 1000 to 10000 | 1000 to 10000 | 5000 to 10000 | – | Cn1c(-c2cc3cccnc3n2CC2CC2)nc2cc(C(=O)N3CC[C@@H]4CCN[C@@H]4C3)cnc21 (single isomer, unassigned) [Compound I-10, hydrochloride] |
| ≥ 10000 | 10000 to 100000 | – | – | – | Cn1c(-c2cc3cccnc3n2CC2CC2)nc2cc(C(=O)N3CC[C@H]4CCN[C@H]4C3)cnc21 [Compound I-25] |
| 1000 to 5000 | 1000 to 10000 | 1000 to 10000 | 5000 to 10000 | – | Cn1c(-c2cc3cccnc3n2CC2CC2)nc2cc(C(=O)N3CC[C@@H]4CCN[C@@H]4C3)cnc21 [Compound I-26] |
| ≥ 10000 | – | – | – | – | Cn1c(-c2cc3cccnc3n2CC(F)(F)F)nc2cc(C(=O)N3CC[C@H]4CCN[C@H]4C3)cnc21 [Compound I-3] |
| ≥ 10000 | 10000 to 100000 | – | – | – | Cn1c(-c2cc3cccnc3n2CC2CC2)nc2cc(C(=O)N3CC[C@H]4CCN[C@H]4C3)cnc21 (single isomer, unassigned) [Compound I-9, hydrochloride] |
| ≥ 10000 | 10000 to 100000 | – | – | – | Cn1c(-c2cc3cccnc3n2CC(F)(F)F)nc2cc(C(=O)N3CC[C@H]4CCN[C@H]4C3)cnc21 [Compound I-20] |
| ≥ 10000 | – | – | – | E/F | Cn1c(-c2cc3cccnc3n2CC(F)(F)F)nc2cc(C(=O)N3CC[C@@H]4CCN[C@@H]4C3)cnc21 [Compound I-21] |
| ≥ 10000 | 10000 to 100000 | – | – | – | Cn1c(-c2cc3cccnc3n2CC(F)(F)F)nc2cc(C(=O)N3CCC4CCNC4C3)cnc21 (centres unmarked) [Compound I-6] |
| 5000 to 10000 | – | – | – | – | Cn1c(-c2cc3cccnc3n2CC2CC2)nc2cc(C(=O)N3CCC4CCNC4C3)cnc21 (centres unmarked) [Compound I-24] |

Continued, molecule first:

| Compound | IC50 (hPAD4; [1]) [nM] | IC50 (hPAD4; [2]) [nM] | IC50 (mPAD4; [3]) [nM] | IC50 (mPAD4; read-out: mPAD4 RFMS IC50) [nM] | hPAD4 RFMS pIC50 (hPAD4; pIC50=-log(IC50)) |
| --- | --- | --- | --- | --- | --- |
| CCn1c(-c2nc3cc(C(=O)N4C[C@H]5CC[C@@H]4[C@@H]5N)cnc3n2C)cc2cccnc21 [Compound I-39] | 1000 to 5000 | 1000 to 10000 | 1000 to 10000 | 1000 to 5000 | – |
| COCCn1c(-c2cc3ccc(OC)nc3n2CC2CC2)nc2cc(C(=O)N3C[C@H]4CC[C@@H]3[C@@H]4N)cnc21 [Compound I-47] | ≤ 1000 | ≤ 1000 | ≤ 1000 | ≤ 1000 | – |
| N[C@@H]1CCCN(C(=O)c2cnc3c(c2)nc(-c2cc4cccnc4n2CC2CC2)n3CC(F)F)C1 [Compound I-12] | 1000 to 5000 | 1000 to 10000 | 1000 to 10000 | 1000 to 5000 | – |
| Cn1c(-c2cc3ccc(C(F)(F)F)nc3n2CC2CC2)nc2cc(C(=O)N3C[C@H]4CC[C@@H]3[C@@H]4N)cnc21 [Compound I-52] | ≤ 1000 | ≤ 1000 | ≤ 1000 | ≤ 1000 | – |
| CO[C@]1(C)C[C@H](Cn2c(-c3cc4cccnc4n3CC3CC3)nc3cc(C(=O)N4C[C@H]5CC[C@@H]4[C@@H]5N)cnc32)C1 [Compound I-50] | ≤ 1000 | ≤ 1000 | ≤ 1000 | ≤ 1000 | – |
| CC1CCC(N)CN1C(=O)c1cnc2c(c1)nc(-c1cc3cccnc3n1CC1CC1)n2C (centres unmarked) [Compound I-32] | 1000 to 5000 | 1000 to 10000 | 1000 to 10000 | 5000 to 10000 | – |
| COCCn1c(-c2cc3cccnc3n2CC2CC2)nc2cc(C(=O)N3C[C@H]4CC[C@@H]3[C@@H]4N)cnc21 [Compound I-45] | ≤ 1000 | ≤ 1000 | 1000 to 10000 | 1000 to 5000 | – |
| CCn1c(-c2nc3cc(C(=O)N4CCC[C@@H](N)C4)cnc3n2CCOC)cc2cccnc21 [Compound I-42] | ≥ 10000 | 10000 to 100000 | 1000 to 10000 | 1000 to 5000 | – |
| N[C@@H]1[C@@H]2CC[C@H]1N(C(=O)c1cnc3c(c1)nc(-c1cc4cccnc4n1CC1CC1)n3CC(F)F)C2 [Compound I-54] | ≤ 1000 | ≤ 1000 | ≤ 1000 | ≤ 1000 | – |
| Cn1c(-c2cc3cc(F)c(F)cc3n2CC2CC2)nc2cc(C(=O)N3CCC[C@@H](N)C3)cnc21 [Compound I-30] | 1000 to 5000 | 1000 to 10000 | ≤ 1000 | ≤ 1000 | – |
| Cn1c(-c2cc3cccnc3n2CC(C)(F)F)nc2cc(C(=O)N3CCC[C@@H](N)C3)cnc21 [Compound I-11] | 5000 to 10000 | 1000 to 10000 | 1000 to 10000 | 5000 to 10000 | – |
| CCn1c(-c2nc3cc(C(=O)N4C[C@H]5CC[C@@H]4[C@@H]5N)cnc3n2CCOC)cc2ccc(OC)nc21 [Compound I-48] | ≤ 1000 | ≤ 1000 | 1000 to 10000 | 1000 to 5000 | – |
| Cn1c(-c2cc3cccnc3n2CC2CC2)nc2cc(C(=O)N3C[C@H]4CC[C@@H]3[C@@H]4N)cnc21 [Compound I-41] | ≤ 1000 | ≤ 1000 | ≤ 1000 | ≤ 1000 | – |
| Cn1c(-c2cc3cc(F)c(F)nc3n2CC2CC2)nc2cc(C(=O)N3CCC[C@@H](N)C3)cnc21 [Compound I-14] | 1000 to 5000 | 1000 to 10000 | ≤ 1000 | ≤ 1000 | – |
| COc1ccc2cc(-c3nc4cc(C(=O)N5C[C@H]6CC[C@@H]5[C@@H]6N)cnc4n3C)n(CC3CC3)c2n1 [Compound I-44] | ≤ 1000 | ≤ 1000 | ≤ 1000 | ≤ 1000 | – |
| CCn1c(-c2nc3cc(C(=O)N4CCC[C@@H](N)C4)cnc3n2CCOC)cc2ccc(OC)nc21 [Compound I-49] | 5000 to 10000 | 1000 to 10000 | 1000 to 10000 | 1000 to 5000 | – |
| CCn1c(-c2nc3cc(C(=O)N4C[C@H]5CC[C@@H]4[C@@H]5N)cnc3n2CCOC)cc2cccnc21 [Compound I-43] | 1000 to 5000 | 1000 to 10000 | 1000 to 10000 | 1000 to 5000 | – |
| Cn1c(-c2cc3cccnc3n2CC2CC2)nc2cc(C(=O)N3C[C@@H](N)C[C@H](F)C3)cnc21 [Compound I-13] | 1000 to 5000 | 1000 to 10000 | ≤ 1000 | ≤ 1000 | – |
| CCn1c(-c2cc3ccc(OC)nc3n2CC2CC2)nc2cc(C(=O)N3CCC[C@@H](N)C3)cnc21 [Compound I-16] | ≤ 1000 | ≤ 1000 | ≤ 1000 | ≤ 1000 | – |
| COCCn1c(-c2cc3cccnc3n2CC2CC2)nc2cc(C(=O)N3CCC[C@@H](N)C3)cnc21 [Compound I-46] | 1000 to 5000 | 1000 to 10000 | 1000 to 10000 | 1000 to 5000 | – |
| COc1ccc2cc(-c3nc4cc(C(=O)N5C[C@H]6CC[C@@H]5[C@@H]6N)cnc4n3C[C@H]3C[C@@](C)(OC)C3)n(CC3CC3)c2n1 [Compound I-53] | ≤ 1000 | ≤ 1000 | ≤ 1000 | ≤ 1000 | – |
| CCn1c(-c2nc3cc(C(=O)N4CCC[C@@H](N)C4)cnc3n2CC)cc2cccnc21 [Compound I-4] | 5000 to 10000 | 1000 to 10000 | 1000 to 10000 | 1000 to 5000 | – |
| Cn1c(-c2cc3cccnc3n2CC(F)(F)F)nc2cc(C(=O)N3CCC[C@@H](N)C3)cnc21 [Compound I-5] | ≥ 10000 | 10000 to 100000 | – | – | – |
| CCn1c(-c2nc3cc(C(=O)N4C[C@H]5CC[C@@H]4[C@@H]5N)cnc3n2C[C@H]2C[C@@](C)(OC)C2)cc2ccc(OC)nc21 [Compound I-51] | ≤ 1000 | ≤ 1000 | ≤ 1000 | ≤ 1000 | – |
| CCn1c(-c2nc3cc(C(=O)N4C[C@H]5CC[C@@H]4[C@@H]5N)cnc3n2C)cc2ccc(OC)nc21 [Compound I-37] | ≤ 1000 | ≤ 1000 | ≤ 1000 | ≤ 1000 | – |
| CCn1c(-c2cc3cccnc3n2CC2CC2)nc2cc(C(=O)N3CCC[C@@H](N)C3)cnc21 [Compound I-22] | 1000 to 5000 | 1000 to 10000 | ≤ 1000 | ≤ 1000 | – |

— patent publication US20170166592A1, “AZA-BENZIMIDAZOLE INHIBITORS OF PAD4” (Padlock Therapeutics, Inc., priority 2015, published 2017)
